Assay results reported in patent US20100256179A1, “COMBINATION THERAPY FOR PAIN IN PAINFUL DIABETIC NEUROPATHY” (UCB PHARMA GMBH, priority 2004, published 2010).

How the values were obtained:
[1] = test system: formalin-induced flinching and licking response of the affected paw; test: rat formalin paw test (late phase); format: in vivo
Protocol: Rats were given an intraplantar injection of 5% formalin (50 μl) into the posterior left paw. This treatment induces a recognizable flinching and licking response of the affected paw in control animals. The number of flinches was counted for 15 minutes, beginning 20 minutes after injection of formalin. The time spent licking the affected paw was also recorded.
Male Rj: Wistar (Han) rats, 10 per group, weighing 100-130 g at the beginning of the experiments were studied per group. The test was performed blind.

[2] = Trough and peak plasma concentrations of unchanged lacosamide in the trial; format: in vivo, human; conditions: 400 mg/day, Maintenance Phase
[3] = Safety and tolerability of lacosamide in the trial; format: in vivo, human
Description: Safety variables evaluated included adverse events, clinical laboratory assessments, electrocardiograms (ECGs), vital sign measurements, and physical and neurological examinations.

[4] = test system: pain in subjects with diabetic distal sensory polyneuropathy; test: Randomized, double-blind placebo controlled trial of lacosamide in painful diabetic neuropathy: efficacy; format: in vivo, human
Protocol: A randomized, double-blind placebo controlled trial to investigate safety and efficacy of lacosamide in painful diabetic neuropathy was conducted.
Baseline data were collected during the last week of a 4-week Run-In Phase to ensure subject eligibility. […] The highest attained dose was maintained for 4 weeks during the Maintenance Phase, after which subjects entered the Taper Phase and were tapered off of study medication for 1 week. The Taper Phase was followed by a 2-week Safety Follow-Up Phase.
Subjects were male or female, age 18 or older. Subjects had clinically diagnosed pain attributed to diabetic distal sensory polyneuropathy for 1-5 years and a diagnosis of diabetes mellitus (Type I or Type II). Subjects had at least moderate pain (mean pain intensity during the Baseline week ≧4 out of 10 on an 11-point Likert scale) which had been stable for 4 weeks prior to randomization. Furthermore, subjects had good or fair diabetic control (glycosylated hemoglobin (HbA1C) <10%), which was optimized (best effort to achieve best control) for at least three months prior to Visit 1. Test product, dose and mode of administration, batch number
After completion of screening assessments, subjects began a 4-week Run-In Phase. […] Following the titration scheme, their dosage was escalated by 100 mg in weekly increments to a maximum dose of 400 mg/day (provided tolerability was satisfactory).
If subjects reached total or sufficient pain relief with lower doses than 400 mg/day, after careful consideration by the investigator, they were allowed to stay on the attained dose level in the Maintenance Phase. If adverse events were intolerable during the Titration Phase or the first week of the Maintenance Phase (only for those subjects reaching the 400 mg/day level), subjects could be down-titrated, once, to the next lowest dose. Subjects were treated at 400 mg/day (or highest dose achieved) for 4 weeks in the Maintenance Phase.
The primary variable was the within-subject change in average daily pain score from the Baseline week to Maintenance Phase, using an 11-point Likert scale (0-10). […]

[5] = Example 4, duloxetine 8 mg/kg i.p.
[6] = Example 2, gabapentin 50 mg/kg i.p.
[7] = Example 2, gabapentin 100 mg/kg i.p.
[8] = Example 5, memantine 4 mg/kg i.p.
[9] = Example 5, memantine 8 mg/kg i.p.
[10] = Example 2, lacosamide 20 mg/kg i.p.
[11] = Example 3, lacosamide 10 mg/kg i.p.
[12] = Example 3, lacosamide 20 mg/kg i.p.
[13] = Example 4, lacosamide 10 mg/kg i.p.
[14] = Example 5, lacosamide 10 mg/kg i.p.
[15] = Example 5, lacosamide 20 mg/kg i.p.
[16] = Example 5, lacosamide alone at 10 mg/kg
[17] = of 60 subjects in the lacosamide group
[18] = Example 3, morphine 2 mg/kg i.p.
[19] = Example 3, morphine 4 mg/kg i.p.

SMILES: CNCC[C@H](Oc1cccc2ccccc12)c1cccs1 [Duloxetine]
- effects on number of flinches and time spent licking ([1]; Example 4, duloxetine 8 mg/kg alone): no clear effects
- Licking time % change (a): compared with vehicle control [1, 5]: −26% (a)
- Licking time (seconds) mean ± SEM [1, 5]: 195.5 ± 45.0 s
- No. of flinches % change (a): compared with vehicle control [1, 5]: −1% (a)
- No. of flinches mean ± SEM [1, 5]: 149.6 ± 27.3

SMILES: NCC1(CC(=O)O)CCCCC1 [Gabapentin]
- Licking time % change (a): compared with vehicle control [1, 6]: −28% (a)
- Licking time (seconds) mean ± SEM [1, 6]: 161.0 ± 27.3 s
- No. of flinches % change (a): compared with vehicle control [1, 6]: −24% (a)
- No. of flinches mean ± SEM [1, 6]: 97.4 ± 23.8
- Licking time % change (a): compared with vehicle control [1, 7]: −60% (a)
- Licking time (seconds) mean ± SEM [1, 7]: 90.0 ± 22.5 s
- No. of flinches % change (a): compared with vehicle control [1, 7]: −31% (a)
- No. of flinches mean ± SEM [1, 7]: 88.1 ± 19.4
- decrease in time spent licking ([1]; Example 2, gabapentin alone at 50 mg/kg): 28%
- decrease in number of flinches as compared with vehicle controls ([1]; Example 2, gabapentin alone at 50 mg/kg, non-significant): 24%
- decrease in number of flinches as compared with vehicle controls ([1]; Example 2, gabapentin alone at 100 mg/kg, non-significant): 31%
- decrease in time spent licking ([1]; Example 2, gabapentin alone at 100 mg/kg, p<0.05): 60%

SMILES: CC12CC3CC(C)(C1)CC(N)(C3)C2 [Memantine]
- Licking time % change (a): compared with vehicle control [1, 8]: +25% (a)
- Licking time (seconds) mean ± SEM [1, 8]: 219.9 ± 21.8 s
- No. of flinches % change (a): compared with vehicle control [1, 8]: −3% (a)
- No. of flinches mean ± SEM [1, 8]: 161.4 ± 26.3
- Licking time % change (a): compared with vehicle control [1, 9]: +35% (a)
- Licking time (seconds) mean ± SEM [1, 9]: 237.3 ± 18.9 s
- No. of flinches % change (a): compared with vehicle control [1, 9]: −20% (a)
- No. of flinches mean ± SEM [1, 9]: 132.3 ± 24.6
- increase in time spent licking ([1]; Example 5, memantine alone at 4 mg/kg, p=0.0537): 25%
- increase in time spent licking ([1]; Example 5, memantine alone at 8 mg/kg, p<0.05): 35%
- number of flinches as compared with vehicle controls ([1]; Example 5, memantine alone at 4 and 8 mg/kg): did not clearly affect

SMILES: COC[C@@H](NC(C)=O)C(=O)NCc1ccccc1 [Lacosamide, (R)-2-acetamido-N-benzyl-3-methoxypropionamide]
- Licking time % change (a): compared with vehicle control [1, 10]: −34% (a)
- Licking time (seconds) mean ± SEM [1, 10]: 146.9 ± 23.8 s
- No. of flinches % change (a): compared with vehicle control [1, 10]: −33% (a)
- No. of flinches mean ± SEM [1, 10]: 85.7 ± 14.3
- decrease in number of flinches as compared with vehicle controls ([1]; Example 2, lacosamide alone at 20 mg/kg): 33%
- decrease in time spent licking as compared with vehicle controls ([1]; Example 2, lacosamide alone at 20 mg/kg, p=0.0962): 34%
- Licking time % change (a): compared with vehicle control [1, 11]: −28% (a)
- Licking time (seconds) mean ± SEM [1, 11]: 210.1 ± 22.7 s
- No. of flinches % change (a): compared with vehicle control [1, 11]: +22% (a)
- No. of flinches mean ± SEM [1, 11]: 182.7 ± 25.9
- Licking time % change (a): compared with vehicle control [1, 12]: −56% (a)
- Licking time (seconds) mean ± SEM [1, 12]: 128.2 ± 28.0 s
- No. of flinches % change (a): compared with vehicle control [1, 12]: −35% (a)
- No. of flinches mean ± SEM [1, 12]: 97.2 ± 16.0
- increase in number of flinches as compared with vehicle controls ([1]; Example 3, lacosamide alone at 10 mg/kg): 22%
- decrease in time spent licking ([1]; Example 3, lacosamide alone at 10 mg/kg, p<0.05): 28%
- decrease in time spent licking ([1]; Example 3, lacosamide alone at 20 mg/kg, p<0.001): 56%
- decrease in number of flinches as compared with vehicle controls ([1]; Example 3, lacosamide alone at 20 mg/kg, p=0.0961): 35%
- decrease in time spent licking ([1]; Example 4, lacosamide 10 mg/kg alone, p=0.0538): 30%
- Licking time % change (a): compared with vehicle control [1, 13]: −30% (a)
- Licking time (seconds) mean ± SEM [1, 13]: 185.2 ± 31.7 s
- No. of flinches % change (a): compared with vehicle control [1, 13]: +5% (a)
- No. of flinches mean ± SEM [1, 13]: 158.2 ± 15.6
- Licking time % change (a): compared with vehicle control [1, 14]: −4% (a)
- Licking time (seconds) mean ± SEM [1, 14]: 168.5 ± 23.9 s
- No. of flinches % change (a): compared with vehicle control [1, 14]: −31% (a)
- No. of flinches mean ± SEM [1, 14]: 113.9 ± 23.2
- Licking time % change (a): compared with vehicle control [1, 15]: −52% (a)
- Licking time (seconds) mean ± SEM [1, 15]: 85.1 ± 19.1 s
- No. of flinches % change (a): compared with vehicle control [1, 15]: −48% (a)
- No. of flinches mean ± SEM [1, 15]: 85.8 ± 14.4
- decrease in number of flinches as compared with vehicle controls [1, 16]: 31%
- effect on time spent licking [1, 16]: no clear effects
- decrease in time spent licking ([1]; Example 5, lacosamide alone at 20 mg/kg, p<0.01): 52%
- decrease in number of flinches as compared with vehicle controls ([1]; Example 5, lacosamide alone at 20 mg/kg, p<0.05): 48%
- mean plasma drug concentration, peak ([2]; Visit 9): 11400 ng/mL
- mean plasma drug concentration, trough ([2]; Visit 9): 7700 ng/mL
- mean plasma drug concentration, peak ([2]; Visit 10): 9100 ng/mL
- mean plasma drug concentration, trough ([2]; Visit 10): 7900 ng/mL
- HbA1C level, mean change ([3]; Baseline to Visit 8, lacosamide group): 0.1%
- Body weight change during treatment ([3]; lacosamide group): -0.5 kg
- subjects who withdrew from the trial due to an AE ([3]; lacosamide group): 5 subjects
- subjects with a serious adverse event (SAE) ([3]; lacosamide treatment group, abnormal ECG judged unlikely related to study medication): one
- mean duration of exposure to study medication ([3]; lacosamide treatment group, indicating high tolerability): 59.6 days
- subjects reporting adverse events associated with the central and peripheral nervous system ([3]; of 60 lacosamide subjects): 38%
- subjects who reported at least one treatment-emergent adverse event (TEAE), overall incidence rate [3, 17]: 87%
- subjects who withdrew from the trial due to an AE [3, 17]: 8%
- weight gain ([3]; trial conclusion): did not induce weight gain
- reduction in pain from Baseline to the Maintenance Phase (average daily pain score, 11-point Likert scale), LSMean ([4]; Full Analysis Set (LOCF), oral lacosamide titrated to max 400 mg/day): 3.11 point
- proportion of subjects with a decrease of 2 or more points on the Likert pain scale ([4]; compared with the placebo group, all phases of the trial): larger proportion
- CGIC and PGIC scores ([4]; end of Maintenance Phase (Visit 10), lacosamide and placebo): Statistically significant differences
- difference in LSMean pain score between the two groups ([4]; lacosamide vs placebo, FAS (LOCF), p=0.0390): 0.9

SMILES: CN1CC[C@]23c4c5ccc(O)c4O[C@H]2[C@@H](O)C=C[C@H]3[C@H]1C5 [Morphine]
- Licking time % change (a): compared with vehicle control [1, 18]: −1% (a)
- Licking time (seconds) mean ± SEM [1, 18]: 289.3 ± 30.7 s
- No. of flinches % change (a): compared with vehicle control [1, 18]: −7% (a)
- No. of flinches mean ± SEM [1, 18]: 139.5 ± 25.3
- Licking time % change (a): compared with vehicle control [1, 19]: −20% (a)
- Licking time (seconds) mean ± SEM [1, 19]: 234.9 ± 37.3 s
- No. of flinches % change (a): compared with vehicle control [1, 19]: −37% (a)
- No. of flinches mean ± SEM [1, 19]: 94.3 ± 21.1
- number of flinches and time spent licking as compared with vehicle controls ([1]; Example 3, morphine alone at 2 and 4 mg/kg, effects did not reach statistical significance): dose-dependently decreased
